Our source for the IC50 values is BindingDB's records for doi:10.1126/scitranslmed.abb5883 (University of North Carolina at Chapel Hill, 2020).

“And” between values parts separate entries of the source, which are not always exact repeats. Identical values can stand only once.

In experiment [1] the target is T1, Replicase polyprotein 1ab (Severe acute respiratory syndrome coronavirus 2, UniProt P0DTD1). As to the kind of experiment: SARS-CoV-2 in Vero E6. As to the method: Vero E6 cells were plated at 20,000 cells/well in a 96-well plate. 24hr later, medium containing a dose response of NHC was added concurrent with SARS-CoV-2 (2019-nCoV/USA-WA1/2020 strain) at an MOI of 0.05. 48 hours post infection, cell viability was measured by CellTiter Glo assay.

Experiment [2] concerns the target T1, Replicase polyprotein 1ab. As to the kind of experiment: SARS-CoV-2 in Calu-3. As to the method: Calu-3 2B4 cells were adsorbed with MOI 0.1 PFU/cell of SARS-CoV-2 (2019-nCoV/USA-WA1/2020 strain) at 37°C. Plates were manually rocked every 10 min to redistribute the inoculum. After 30 min, virus inoculum was removed, cells were washed with Phosphate buffered saline (PBS) once to remove unbound virus, medium containing NHC or vehicle control (DMSO) was added back onto the cells, and cells were incubated for 72 hours at 37°C.

On to `O=c1nc(NO)ccn1[C@@H]1O[C@H](CO)[C@@H](O)[C@H]1O` [NHC], for which the IC50 was 300 nM in experiment [1]; 80 nM and 90 nM in experiment [2].

By IC50 is commonly meant the concentration that inhibits the measured activity by half. A low value points to greater potency.
